In PMC12669040, “Tumour-specific STING agonist synthesis via a two-component prodrug system” (Nature Chemistry, 2025):
Where “and” joins values, the source holds several entries; their conditions need not be identical. Identical values can stand only once. Like-named read-outs stand apart in the source and are kept apart here.

Columns and labels:
[1] = tested on: STING pathway effectors (pSTING, pTBK1, pIRF3) in THP-1 Lucia ISG cells; assay: Western blots of STING pathway activation; format: cell-based, human; conditions: 5 μM
Protocol: THP-1 Lucia ISG cells were maintained as described above. […] Cells were treated with cycloheximide (50 µg ml^−1) and incubated for 50 min at 37 °C. Treated cells were then combined with the growth medium containing SC2S dimer (5 µM final concentration) to 1 × 10^6 cells ml^−1 and incubated at 37 °C. At each timepoint, a portion (3 ml) of the cell suspension was withdrawn. Withdrawn cells were pelleted (300g, 3 min), washed with PBS (1 ml), pelleted again (300g, 3 min) and resuspended to a density of 1 × 10^7 cells ml^−1 in ice-cold lysis buffer (25 mM Tris pH 7.6, 150 mM NaCl, 1% NP-40, 1% sodium deoxycholate and 0.1% SDS) supplied with protease/phosphatase inhibitor tablets (Pierce A32961) and freshly prepared phenylmethylsulfonyl fluoride (1 mM). Lysates were further disrupted by sonication at low power (5 s × 3 cycles). Sonicated lysates were clarified by centrifugation at 4 °C (13,000g, 5 min). […] Samples were reduced and denatured at 95 °C for 5 min before being separated on a precast polyacrylamide gel (Invitrogen NuPAGE 4–12% Bis-Tris, 20 µg total protein per lane). Protein bands were then transferred to a polyvinylidene difluoride membrane (Invitrogen iBlot2). […]

[2] = LC–MS/MS analysis of in situ SC2S formation (tissue distribution); format: in vivo, BALB/c mice; conditions: for concentration at 4 h / concentration at 2 h / concentration at 1 h: BALB/c, mouse
Protocol: The blood, tumour, lung, kidney, liver and spleen were collected for each mouse. Three mice treated with vehicle were included as control samples. Whole blood samples were centrifuged at 2,000g, 4 °C for 10 min. Supernatant plasma was aspirated into an Eppendorf tube and frozen at −80 °C. Tumour and organ tissues were snap-frozen in liquid nitrogen and stored at −80 °C until further analysis. The plasma samples (10-µl aliquots) were prepared by protein precipitation extraction. The organic layer was evaporated to dryness and reconstituted in a solution equivalent to the initial chromatographic starting conditions. The tissue samples were analysed by homogenization to give a 200 […] concentration. The homogenised tissue samples (10-µl aliquots) were then taken through the same preparation procedure as the plasma samples. All samples were analysed using the PKB Core Facility’s 6500 LC–MS/MS system, in negative ion mode. The chromatography was carried out using a gradient method on a Kinetex EVO C18 column (50 × 2.1 mm). Analysis was conducted in four batches, consisting of calibration standards, quality control samples, blank control samples, internal standard-only samples and study samples. Calibration curves were constructed using linear regression with a 1/x^2 weighting. A calibration range of 1–500 ng ml^−1 (5–2,500 ng g^−1 in tissue) was used. Precision and accuracy were well within the PK/B core facility’s acceptance criteria of ±20%. The LC–MS/MS method was developed and qualified ahead of the sample analysis. The performance of the method met normal Core Facility acceptance criteria for analysis.

[3] = tested on: THP-1 cells; assay: Dilution limits of N1/E4 combination to activate THP-1 cells (IFN-β ELISA)

## COc1cc2sc(C(=O)CCC(=O)O)cc2cc1SCCSc1cc2cc(C(=O)CCC(=O)O)sc2cc1OC [SC2S]
[1]
  phosphorylation of major STING pathway proteins: confirmed the phosphorylation of major STING pathway proteins
[2]; 1h, individual samples
  Blood Calculated Concentration: BLQ
  Kidney Calculated Concentration: BLQ
  Lung Calculated Concentration: BLQ
  Tumour Calculated Concentration: 64.6 ng/mL and 323 ng/g and 11.6 ng/mL and 58.1 ng/g and 12.1 ng/mL and 60.6 ng/g
[2]; 2h, individual samples
  Blood Calculated Concentration: BLQ
  Liver Calculated Concentration: BLQ
  Spleen Calculated Concentration: BLQ
  Tumour Calculated Concentration: 17.8 ng/mL and 89.2 ng/g and 62.2 ng/mL and 311 ng/g and 4.45 ng/mL and 22.2 ng/g
[2]; 4h, individual samples
  Kidney Calculated Concentration: BLQ
  Spleen Calculated Concentration: BLQ
  Tumour Calculated Concentration: 12.1 ng/mL and 60.4 ng/g and 19.6 ng/mL and 98.2 ng/g and 4.66 ng/mL and 23.3 ng/g
[2]; 8h, individual samples
  Kidney Calculated Concentration: BLQ
  Liver Calculated Concentration: BLQ
  Spleen Calculated Concentration: BLQ
  Tumour Calculated Concentration: BLQ
[2]; 24h, individual samples
  Kidney Calculated Concentration: BLQ
  Spleen Calculated Concentration: BLQ
[2]; liver, 4h, read-out: Liver Mean concentration
  concentration at 4 h: 9.3 ng/g
[2]; liver, other: β-GlcA-N1 intraperitoneal (IP) + E4 intratumoral (IT), 4h, individual samples, read-out: Liver Calculated Concentration
  concentration at 4 h: 1.86 ng/mL and 9.3 ng/g
[2]; plasma, 2h, individual samples, read-out: Blood Calculated Concentration
  concentration at 2 h: 3.03 ng/mL
[2]; plasma, 2h, read-out: Blood Mean concentration
  concentration at 2 h: 3.03 ng/mL
[2]; plasma, other: β-GlcA-N1 intraperitoneal (IP) + E4 intratumoral (IT), 1h, individual samples, read-out: Blood Calculated Concentration
  concentration at 1 h: 1.29 ng/mL
[2]; plasma, other: β-GlcA-N1 intraperitoneal (IP) + E4 intratumoral (IT), 1h, read-out: Blood Mean concentration
  concentration at 1 h: 1.29 ng/mL
[2]; tumour, 2h, read-out: Tumour Mean concentration
  concentration at 2 h: 141 ng/g
[2]; tumour, 4h, read-out: Tumour Mean concentration
  concentration at 4 h: 60.7 ng/g
[2]; tumour, other: β-GlcA-N1 intraperitoneal (IP) + E4 intratumoral (IT), 1h, read-out: Tumour Mean concentration
  concentration at 1 h: 147 ng/g
[3]; 0.195312 uM
  Response from SC2S, OD 450: 0.075
[3]; 0.390625 uM
  Response from SC2S, OD 450: 0.634
[3]; 0.78125 uM
  Response from SC2S, OD 450: 1.146
[3]; 1.5625 uM
  Response from SC2S, OD 450: 2.392
[3]; 3.125 uM
  Response from SC2S, OD 450: 2.683
[3]; 6.25 uM
  Response from SC2S, OD 450: 2.764
[3]; 12.5 uM
  Response from SC2S, OD 450: 2.752
[3]; 25 uM, defined as 100% activation
  Response from SC2S, OD 450: 2.757
